Test results reported in EP0033042A1, “Ophthalmic inserts for lowering intraocular pressure comprising carbonic anhydrase inhibitors” (Merck & Co., Inc., priority 1980, dated 1981).
Where a name gives a salt, the structure may show the parent alone.

Columns and labels:
[1] = tested on: NORMAL INTRAOCULAR PRESSURE IN UNANESTHETIZED RABBITS; experiment: Topical administration, effect on normal intraocular pressure in unanesthetized rabbits; assay type: in vivo; conditions: 12.1 % by wt., 50μl in both eyes, in 0.5% hydroxyethylcellulose
[2] = tested on: INTRAOCULAR PRESSURE (IOP) IN RABBITS WITH ALPHA CHYMOTRYPSIN-INDUCED OCULAR HYPERTENSION; experiment: Topical administration, effect on IOP in rabbits with alpha chymotrypsin-induced ocular hypertension (tonometry); assay type: in vivo; conditions: for Change in IOP (mm Hg) After Drug Administration: 12.1 % by wt., 50µl of 0.5% hydroxyethylcellulose; for Change in IOP (mm Hg) After Drug Administration / IOP (mm Hg) t=0 min.: mean ± standard deviation, Table III; for IOP (mm Hg) t=0 min.: immediately prior the drug administration (served as control), 9 eyes; for mean ΔP (mean of ΔP versus IOP at t0): 8 animals; for mean ΔP (mean of ΔP versus IOP at t0) / Intraocular pressure, mean ± stand deviation: 50μl in 0.5% hydroxyethyl cellulose; for Intraocular pressure, mean ± stand deviation: mean of 8 animals
[3] = 0 min after instillation (baseline), 14 eyes

| SMILES | Mean Intraocular Pressure ± SD [1, 3] [mm Hg] | Mean Intraocular Pressure ± SD ([1]; 30 min after instillation) [mm Hg] | Mean Intraocular Pressure ± SD ([1]; 60 min after instillation) [mm Hg] | Mean Intraocular Pressure ± SD ([1]; 120 min after instillation) [mm Hg] | Mean Intraocular Pressure ± SD ([1]; 180 min after instillation) [mm Hg] | Mean Intraocular Pressure ± SD ([1]; 240 min after instillation) [mm Hg] | Mean Intraocular Pressure ± SD ([1]; 300 min after instillation) [mm Hg] | Change in IOP (mm Hg) After Drug Administration ([2]; 30 min) [mm Hg] | Change in IOP (mm Hg) After Drug Administration ([2]; 60 min) [mm Hg] | Change in IOP (mm Hg) After Drug Administration ([2]; 120 min) [mm Hg] | Change in IOP (mm Hg) After Drug Administration ([2]; 180 min) [mm Hg] | Change in IOP (mm Hg) After Drug Administration ([2]; 240 min) [mm Hg] | Change in IOP (mm Hg) After Drug Administration ([2]; 300 min) [mm Hg] | IOP (mm Hg) t=0 min. [2] [mm Hg] | other results |
| --- | --- | --- | --- | --- | --- | --- | --- | --- | --- | --- | --- | --- | --- | --- | --- |
| CC(=O)Nc1nnc(S(N)(=O)=O)s1.[K].[K] [Acetazolamide Dipotassium salt, N-[5-(aminosulfonyl)-1,3,4-thiadiazol-2-yl]acetamide dipotassium salt] | 19±1.3 | 19±1.3 | 20±1.4 | 19±1.9 | 19±1.9 | 20±1.8 | 21±1.7 | -1±3.1 | -3±4.8 | -5±4.6 | -6±5.3 | -6±5.3 | -3±6.5 | 37±6.4 | – |
| CC(=O)N=c1sc(S(N)(=O)=O)nn1C.[Na] [Methazolamide Sodium salt, N-[5-(aminosulfonyl)-3-methyl-1,3,4-thiadiazol-2(3H)-ylidene]acetamide Sodium Salt] | 20±1.9 | 20±3.0 | 20±2.7 | 19±3.3 | 18±2.7 | 20±3.4 | 20±2.8 | -3±4.6 | -5±4.7 | -6±6.0 | -7±3.7 | -5±5.4 | -7±6.3 | 39±7.7 | mean ΔP (mean of ΔP versus IOP at t0) ([2]; 30 min.): -3.1±4.58 mm Hg; mean ΔP (mean of ΔP versus IOP at t0) ([2]; 60 min.): -5.1±4.68 mm Hg; mean ΔP (mean of ΔP versus IOP at t0) ([2]; 120 min.): -5.6±6.02 mm Hg; mean ΔP (mean of ΔP versus IOP at t0) ([2]; 180 min.): -6.8±3.70 mm Hg; mean ΔP (mean of ΔP versus IOP at t0) ([2]; 240 min.): -5.4±5.42 mm Hg; mean ΔP (mean of ΔP versus IOP at t0) ([2]; 300 min.): -6.9±6.27 mm Hg; Intraocular pressure, mean ± stand deviation ([2]; 0 min. (baseline)): 39.1±7.72 mm Hg; Intraocular pressure, mean ± stand deviation ([2]; 30 min.): 36.0±8.09 mm Hg; Intraocular pressure, mean ± stand deviation ([2]; 60 min.): 34.0±7.37 mm Hg; Intraocular pressure, mean ± stand deviation ([2]; 120 min.): 33.5±8.91 mm Hg; Intraocular pressure, mean ± stand deviation ([2]; 180 min.): 32.4±6.05 mm Hg; Intraocular pressure, mean ± stand deviation ([2]; 240 min.): 33.8±7.91 mm Hg; Intraocular pressure, mean ± stand deviation ([2]; 300 min.): 32.3±7.67 mm Hg |
| NS(=O)(=O)c1cc(Cl)c(Cl)c(S(N)(=O)=O)c1 [Dichlorphenamide Dipotassium salt, 4,5-Dichloro-m-benzenedisulfon-amide dipotassium salt . hemihydrate] | 20±1.8 | 18±2.4 | 18±2.4 | 17±2.1 | 15±2.4 | 17±1.8 | 20±2.6 | -1±5.3 | -4±3.8 | -7±6.2 | -6±6.8 | -4±6.2 | -3±6.7 | 38±5.9 | – |
